Laboratory results taken from patent publication US20250059610A1, “METHODS OF TREATING TUMOR” (priority 2017, published 2025).

Experiments:
[1] = tested on: stage IV or recurrent NSCLC; assay: Phase 3 study of first-line nivolumab versus platinum-based chemotherapy: efficacy; format: in vivo, human
Excerpt: The primary endpoint was progression-free survival (PFS) per blinded independent central review in patients with ≥5% PD-L1 expression.
Eligible adult patients had histologically confirmed squamous or nonsquamous stage IV/recurrent NSCLC, ECOG PS 0-1, and measurable disease per RECIST 1.1,^15 and had received no prior systemic anticancer therapy as primary therapy for advanced or metastatic disease. Patients with central nervous system metastases were eligible if adequately treated and neurologically returned to baseline ≥2 weeks before randomization. Eligible patients had to be off corticosteroids or on a stable or decreasing dose of ≤10 mg daily prednisone (or equivalent). […] Patients with an autoimmune disease or known EGFR mutations or ALK translocations sensitive to available targeted therapy were excluded. Only patients with ≥1% PD-L1 expression were randomized.
(§1) Maintenance pemetrexed was allowed in patients with nonsquamous NSCLC who had stable disease or response after cycle 4. […] Concomitant systemic corticosteroid treatment (<3-week courses) was allowed for non-autoimmune conditions, including but not limited to treatment-related adverse events (AEs) with a potential immunologic cause.
Randomization was stratified by PD-L1 expression (<5% vs. ≥5%) and tumor histology (squamous vs. nonsquamous).
The primary endpoint was PFS based on assessment by blinded independent central review (BICR) in patients with ≥5% PD-L1 expression. Secondary endpoints included PFS per BICR among all randomized patients (≥1% PD-L1 expression), OS among patients with ≥5% PD-L1 expression and among all randomized patients, and ORR per BICR among patients with ≥5% PD-L1 expression.
(§2) Tumor response was assessed every 6 weeks until week 48 and every 12 weeks thereafter. Safety assessments included the recording of AEs, graded according to the National Cancer Institute Common Terminology Criteria for Adverse Events, version 4.0.
For efficacy analyses, patients were grouped according to TMB tertile distribution.
Comparison of PFS and OS between treatment groups was performed by two-sided log-rank tests stratified by PD-L1 expression level (≥5% vs. <5%; for endpoints in all randomized patients) and tumor histology. A stratified Cox proportional-hazards model including the randomized treatment arm as a single covariate was used to estimate HRs and their associated 95% CIs. The Kaplan-Meier method was used to estimate survival curves. ORRs were compared between treatment arms with a two-sided, stratified Cochran-Mantel-Haenszel test. The Clopper-Pearson method was used to estimate ORRs and their exact 95% CIs.

NSCLC = conditions: cited from earlier work
PD-1 = target: T1, PD-1 (Homo sapiens, UniProt Q15116); conditions: across all doses, 0.3 mg/kg to 10 mg/kg; cited from earlier work
T1 construct: PD-1 occupancy appears to be dose-independent in this dose range

[2] = monotherapy, every two weeks; cited from earlier work
[3] = tested on: recurrent small cell lung cancer (SCLC); assay: Clinical trial of nivolumab alone or with ipilimumab in SCLC, exploratory TMB analysis; format: in vivo, human
Excerpt: Subjects were selects who had previously been diagnosed with SCLC, and who had previously received at least one prior platinum-containing regimen (FIG. 23).
The primary objective was to measure the objective response rate (ORR) by per RECIST v1.1. Secondary objectives included monitoring safety, overall survival (OS), progression free survival (PFS), and duration of response (DOR). Prespecified exploratory objectives included biomarker analysis and health status using the EQ-5D instrument.
TMB was determined by whole exome sequencing, using an Illumina HiSeq 2500 using 2×100-bp paired-end reads, and calculated as the total number of nonsynonymous missense mutations in the tumor. For exploratory analyses, patients were divided into 3 subgroups based on TMB tertile.

[4] = Phase 3 study of first-line nivolumab versus platinum-based chemotherapy: safety (adverse events)
Protocol: as §1, §2

[5] = exploratory subgroup with ≥50% PD-L1 expression
[6] = patients with high TMB (upper tertile)
[7] = patients with ≥5% PD-L1 expression
[8] = ≥5% PD-L1 expression, responders
[9] = 10 patients with ≥5% PD-L1 expression, monotherapy cohort

T1 sequence (Q15116 25-288): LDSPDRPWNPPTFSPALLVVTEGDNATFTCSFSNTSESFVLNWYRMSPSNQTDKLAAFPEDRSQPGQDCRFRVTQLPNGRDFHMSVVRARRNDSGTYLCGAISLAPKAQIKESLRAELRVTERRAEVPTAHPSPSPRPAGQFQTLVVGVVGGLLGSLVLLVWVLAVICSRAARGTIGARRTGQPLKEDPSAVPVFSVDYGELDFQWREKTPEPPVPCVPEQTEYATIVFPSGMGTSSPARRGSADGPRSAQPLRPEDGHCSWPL

## Nivolumab
[1]; TMB High
  Complete or partial response: 22 (46.8) n (%)
  Progressive disease: 7 (14.9) n (%)
  Response could not be determined: 3 (6.4) n (%)
  Stable disease: 15 (31.9) n (%)
[1]; TMB Low
  Complete or partial response: 11 (17.7) n (%)
  Progressive disease: 21 (33.9) n (%)
  Response could not be determined: 5 (8.1) n (%)
  Stable disease: 25 (40.3) n (%)
[1]; TMB Low/medium (pooled)
  Complete or partial response: 25 (22.5) n (%)
  Progressive disease: 32 (28.9) n (%)
  Response could not be determined: 9 (8.1) n (%)
  Stable disease: 45 (40.5) n (%)
[1]; TMB Medium
  Complete or partial response: 14 (28.6) n (%)
  Progressive disease: 11 (22.4) n (%)
  Response could not be determined: 4 (8.2) n (%)
  Stable disease: 20 (40.8) n (%)
[1]; [5]
  ORR: 34.1%
  OS hazard ratio, nivolumab versus chemotherapy: 0.90
  PFS hazard ratio, nivolumab versus chemotherapy: 1.07
[1]; patients with high TMB
  median PFS: 9.7 months
[1]; [6]
  PFS hazard ratio, nivolumab versus chemotherapy: 0.62
  objective response rate (ORR): 46.8%
[1]; [7]
  OS hazard ratio, nivolumab versus chemotherapy: 1.02
  Objective response, % of patients (95% CI): 26.1 (20.3-32.5) %
  Objective response, No. of patients: 55
  PFS hazard ratio, nivolumab versus chemotherapy: 1.15
  median OS: 14.4 months
  median PFS: 4.2 months
[1]; patients with ≥5% PD-L1 expression, listed as nivolumab
  Objective response, % of patients (95% CI): 26.1%
[1]; ≥5% PD-L1 expression
  Best overall response: Complete response: 4 (1.9) no. (%)
  Best overall response: Could not be determined: 17 (8.1) no. (%)
  Best overall response: Partial response: 51 (24.2) no. (%)
  Best overall response: Progressive disease: 58 (27.5) no. (%)
  Best overall response: Stable disease: 81 (38.4) no. (%)
  Proportion of patients with a best response of progressive disease: 27.5%
[1]; ≥5% PD-L1 expression, nivolumab versus chemotherapy
  Objective response, estimated odds ratio (95% CI): 0.70 (0.46-1.06)
[1]; [8]
  Duration of response, median: 12.1 mo
  Time to response, median: 2.8 mo
  Time to response, range: 1.2-13.2 mo
NSCLC; [9]
  PFS rate at 24 weeks: 70%
  median PFS: 10.6 months
  objective response rate (ORR): 50%
NSCLC; patients with ≥1% PD-L1 expression
  ORR: 28%
PD-1
  mean PD-1 occupancy rate: 85%
  mean plateau PD-1 occupancy: 72%
[2]
  maximum tolerated dose (MTD), not reached up to: > 10 mg/kg
[3]; ITT patients
  ORR: 11.4%
[3]; TMB-evaluable patients
  ORR: 11.3%
[3]; high TMB
  ORR: about 21.3%
  OS at 1 year: 35.2%
  PFS at 1 year: 21.2%
  average PFS: about 1.4%
  median OS: about 5.4%
[3]; initial results of the SCLC trial
  patients with overall survival over 2 years: 14%
[3]; low TMB
  ORR: about 4.8%
  OS at 1 year: 22.1%
  average PFS: about 1.3%
  median OS: about 3.1%
[3]; medium TMB
  ORR: about 6.8%
  OS at 1 year: about 26.0%
  PFS at 1 year: 3.15%
  average PFS: about 1.3%
  median OS: about 3.9%
[4]; Grade 3-4
  Treatment-related adverse events: Any event: 47 (17.6) n (%)
[4]; in vivo
  Not continuing in the treatment period: Study drug toxicity: 27 (10.1) n (%)
  Treatment-related AEs leading to discontinuation of study drug: 9.7%
  Treatment-related adverse events leading to discontinuation: Adrenal insufficiency: 1 (0.4) n (%)
  Treatment-related adverse events leading to discontinuation: Alanine aminotransferase increased: 5 (1.9) n (%)
  Treatment-related adverse events leading to discontinuation: Aphasia: 1 (0.4) n (%)
